These results are taken from US6383766B1, “Reduced cortisol conjugates” (Ortho-Clinical Diagnostics, Inc., priority 1998, dated 2002).

SMILES strings stand for the structures.

For experiment [1], the system named is biotinylated sheep anti-cortisol gamma globulin (anti-cortisol antibody). Description: VITROS ECi chemiluminescence competitive immunoassay, cross-reactivity (50% displacement of HRP-labeled conjugate). It is filed as binding. As to conditions: cortisol conc. displacing 50% / cross-reactant conc. displacing 50% x 100; for Percent Cross-Reactivity, HRP-RC Invention Label: HRP labeled reduced cortisol-3-CMO-BSA (HRP-RC) as label; for Percent Cross-Reactivity, HRP-NRC Comparative Label: comparative HRP labeled nonreduced cortisol conjugate (HRP-NRC) as label. The method, then:
Evaluation of the HRP labeled reduced cortisol-3-CMO-BSA (hereinafter referred to as HRP-RC conjugate) was evaluated using an Ortho-Clinical Diagnostic VITROS ECi chemiluminesence-based assay methodology.
100 ng/mL reduced cortisol-3-CMO-BSA-HRP (or 20 ng/mL of a comparative HRP-cortisol conjugate label, which is not a conjugate label of the present invention, but which was carried through the same procedures as the label of the invention except for the reduction step)
1.5 μg/mL biotinylated sheep anti-cortisol gamma globulin
An aliquot (75 μL) of anti-cortisol biotinylated sheep antibody, 30 μL of sample, serum comprising cortisol or a steroid structurally similar to cortisol (below), and 75 μL of HRP-RC conjugate were added to an VITROS ECi sample container to which strepavidin had been prebound. The solution was incubated at 37° C. for 30 minutes, then washed using the above-indicated wash reagent.
A 200 μL aliquot of the above-indicated signal reagent solution (100 μL of part A and 100 μL of part B combined just prior to use) was then added to the sample container. The solution was incubated for 5 minutes at 37° C., and the chemiluminesence intensity was then determined.
The above method was used to determine the concentration of potential cross reactant (steroid that is structurally similar to cortisol: 11-deoxycortisol, prednisolone, corticosterone and cortisone) that displaced fifty percent of a fixed amount of a comparative HRP labeled cortisol conjugate (nonreduced cortisol, HRP-NRC) or HRP-RC conjugate bound to a fixed amount of anti-cortisol antibody.
Varied levels of the potential cross reactant were added to sample containers containing either the comparative labeled cortisol conjugate (nonreduced cortisol, HRP-NRC) or HRP-RC conjugate of the instant invention, as described above.
The concentration of cross reactant resulting in a light signal measurement corresponding to 50% of the maximum attainable (all conjugate displaced) was determined and used to calculate the percent cross reactivity as described below and whose results are listed in Table 1.
Percent cross-reactivity is defined as The concentration of cortisol that displaced 50% of the HRP-NRC comparative conjugate (or the HRP-RC conjugate) divided by the concentration of cross-reactant that displaced 50% of the HRP-NRC comparative conjugate (or the HRP-RC conjugate) multiplied by 100 as determined per the assay method described hereinabove.

Experiment [2] concerns anti-cortisol antibody. As to conditions: prior art commercial cortisol assays; cited from earlier work.

In the case of `C[C@]12CCC(=O)C=C1CC[C@@H]1[C@@H]2CC[C@@]2(C)[C@H]1CC[C@]2(O)C(=O)CO` [11-deoxycortisol], in experiment [1], the “Percent Cross-Reactivity, HRP-RC Invention Label” value stood at 2.2% and the “Percent Cross-Reactivity, HRP-NRC Comparative Label” value was 28.4%. Besides, the “cross-reactivity in commercial cortisol assays” value in experiment [2] is recorded as “greater than 10%”.

With `C[C@]12CCC(=O)C=C1CC[C@@H]1[C@@H]2[C@@H](O)C[C@@]2(C)[C@H]1CC[C@]2(O)C(=O)CO` [cortisol], in experiment [1], the “Percent Cross-Reactivity, HRP-RC Invention Label” value came to 100% and the “Percent Cross-Reactivity, HRP-NRC Comparative Label” value is recorded as 100%.

As to `C[C@]12C=CC(=O)C=C1CC[C@@H]1[C@@H]2[C@@H](O)C[C@@]2(C)[C@H]1CC[C@]2(O)C(=O)CO` [prednisolone], in experiment [1], the “Percent Cross-Reactivity, HRP-RC Invention Label” value stood at 24.6% and the “Percent Cross-Reactivity, HRP-NRC Comparative Label” value is given as 34.8%.

For `C[C@]12CCC(=O)C=C1CC[C@@H]1[C@@H]2C(=O)C[C@@]2(C)[C@H]1CC[C@]2(O)C(=O)CO` [cortisone], in experiment [1], the “Percent Cross-Reactivity, HRP-RC Invention Label” value was determined as 1.8% and the “Percent Cross-Reactivity, HRP-NRC Comparative Label” value stood at 5.5%.

On to `C[C@]12C[C@H](O)[C@H]3[C@@H](CCC4=CC(=O)CC[C@@]43C)[C@@H]1CC[C@@H]2C(=O)CO` [corticosterone], for which, in experiment [1], the “Percent Cross-Reactivity, HRP-RC Invention Label” value is 3.3% and the “Percent Cross-Reactivity, HRP-NRC Comparative Label” value amounted to 4.4%.
